# Source: patent US20200338028A1, “BENZENESULFONAMIDE DERIVATIVES AND METHOD FOR MODULATING LIPID RAFT” (Gongwin Biopharm Co., Ltd., priority 2017, published 2020)
# Peptide text beside a SMILES is read from it. * marks the point of attachment. Cbz = O=C(OCc1ccccc1)*; CH2F = FC*
# What was measured:
# Assay type in all cases: cell-based, human
# [1] = test system: PC-3 cells; assay: PTS-induced apoptosis with Z-VAD-FMK (PI staining and nucleosomal DNA fragmentation assay); conditions: PC-3, 24 hours, FIG. 2E and 2F
# Procedure: Flow cytometric analysis was performed as follows. Cells were harvested by trypsinization, fixed with 70% (v/v) alcohol at 4° C. for 30 min and washed with PBS. After centrifugation, the cells were incubated in phosphate-citric acid buffer (0.2 mol/l NaHPO4, 0.1 mol/l citric acid, pH 7.8) for 30 min at room temperature. The cells were then centrifuged and resuspended with 0.5 ml propidium iodide (PI) solution containing Triton X-100 (0.1% v/v), RNase (100 μg/ml) and PI (80 μg/ml). DNA content was analyzed with the FACScan and CellQuest software (Becton Dickinson, Mountain View, Calif., United States).
# The DNA fragmentation was determined for cell death determination by use of the Cell Death Detection ELISAplus kit (Roche, Mannheim, Germany) The assay was based on the quantitative in vitro determination of cytoplasmic histone-associated DNA fragments (mono- and oligonucleosomes) after induced cell death. After the treatment with the compound, the cells were lysed and centrifuged, and the supernatant was used for the detection of nucleosomal DNA according to the manufacturer's protocol.
# [2] = test system: PC-3 cells; assay: colony formation (clonogenic) assay; conditions: PC-3, PTS 1.5 mM, 10 days, FIG. 6E
# Procedure: To assay the anchorage-dependent clonogenic effect, each individual PC-3 and DU-145 cells (150 cells/well) were seeded in a 6-well plate. After a 10-day treatment with p-TSA, the cell colonies were rinsed with phosphate-buffered saline (PBS), stained with 0.4% (w/v) crystal violet dissolved in 20% methanol, and lysed by 50 mM sodium citrate dissolved in 50% ethanol. The absorbance was read at a wavelength of 595 nm.
# To further substantiate the role of Akt, the Myr-Akt overexpressed PC-3 cells were prepared with the method shown as follows. The plasmid encoding Myr-Akt, an N-terminally myristoylation signal-attached Akt, was a gift from Professor Mien-Chie Hung (The University of Texas, M.D. Anderson Cancer Center). For transfection, PC-3 cells were seeded into 60-mm tissue culture dishes with 30% confluence and grown for 24 h to 50-60% confluence. Each dish was washed with serum-free Opti-MEM (Life Technologies), and 2 ml of the serum-free Opti-MEM was then added. Aliquots containing Myr-Akt expression vector or a control plasmid in serum-free Opti-MEM were transfected into cells using Lipofectamine 2000 (Invitrogen) following the manufacturer's instructions. After incubation for 6 h at 37° C., cells were washed with serum-free Opti-MEM and incubated in 10% FBS-containing RPMI-1640 medium for 48 h. The cells were treated with or without p-TSA and then the related analyses were performed. […] Furthermore, the functional rescue of Myr-Akt was determined. […] However, overexpression of Myr-Akt had minimal effect on p-TSA-induced cyclin D1 down-regulation.
# [3] = test system: DU-145 cells; assay: Western blot of Bcl-2 family members, cell cycle regulators and Akt/mTOR/p70S6K pathway signals
# Procedure: (§1) In addition, protein expression assay of each Mcl-1, Bcl-2, Bid, PUMA and Bak was performed by western blotting with methods described as follows. After treatment of PC-3 and DU145 cells with p-TSA, the cells were harvested with trypsinization, centrifuged and lysed in 0.1 ml of lysis buffer containing 10 mM Tris-HCl (pH 7.4), 150 mM NaCl, 1 mM EGTA, 1% Triton X-100, 1 mM PMSF, 10 μg/ml leupeptin, 10 μg/ml aprotinin, 50 mM NaF and 100 μM sodium orthovanadate. Total protein was quantified, mixed with the sample buffer and boiled at 90° C. for 5 min. Equal amount of protein (30 μg) was separated by electrophoresis in 8% or 12% SDS-PAGE, transferred to PVDF membranes and detected with specific antibodies (1:1000 dilution) for each of Mcl-1, Bcl-2, Bid, PUMA and Bak proteins. The immunoreactive proteins after incubation with appropriately labeled secondary antibody (1:3000 dilution) were detected with an enhanced chemiluminescence detection kit (Amersham, Buckinghamshire, United Kingdom). […] These effects were correlated with the mitochondrial stress.
# (§2) During G1 phase, cells grow in size and synthesize mRNA and proteins which are necessary to DNA synthesis. The serine/threonine kinases mTOR and p70S6K that regulate protein synthesis (mRNA translation) through affecting the phosphorylation or activities of several downstream translation factors are critical regulators in G1 phase. Protein expression assay of each Akt, mTOR 4E-BP1 and p70S6K was performed by Western blotting.
# [4] = test system: PC-3 cells; assay: as above; conditions: PC-3, 1 h, FIGS. 6A to 6D
# Procedure: as §1, §2
# [5] = particularly in DU-145 cells, 1 h
smiles,measurement,setting,value
COC(=O)C[C@H](NC(=O)[C@H](C)NC(=O)[C@@H](NC(=O)OCc1ccccc1)C(C)C)C(=O)CF [Z-VAD-FMK] (Cbz-Val-Ala-Asp(OMe)-CH2F),effect of Z-VAD-FMK on PTS-induced apoptosis,[1],profoundly inhibited PTS-induced apoptosis
"CC(C)CCC[C@@H](C)[C@H]1CC[C@H]2[C@@H]3CC=C4C[C@@H](O)CC[C@]4(C)[C@H]3CC[C@]12C [cholesterol, reference compound]","effect of cholesterol on PTS-induced inhibition of cell growth, colony formation assay",[2],significantly rescued PTS-induced inhibition of cell growth
same,effect of cholesterol supplement on p-TSA-induced decrease of Akt and p70S6K phosphorylation,"[3]; DU-145, 1 h, FIGS. 6A to 6D",significantly rescued
same,"Akt phosphorylation, cholesterol by itself",[3]; [5],increase
same,"cyclin D1 protein expression, cholesterol by itself",[3]; [5],decrease
same,effect of cholesterol supplement on p-TSA-induced decrease of Akt and p70S6K phosphorylation,[4],significantly rescued
